From patent US20190336579A1, “COMPOSITIONS AND METHODS TO INDUCE TARGETED APOPTOSIS BY MODULATING PROTEIN TYROSINE PHOSPHATASE 13 (PTPN13)” (National Jewish Health, priority 2010, published 2019) come the findings set out here.

One test has as its system Fas phospho-Y291. The experiment in a line: Western blot of Fas tyrosine 291 phosphorylation in MRC5 lung fibroblasts. The class given is cell-based, human. The settings on record: pervanadate 150 μM, time dependent. The method, then:
PTPN13 has been shown in astrocytoma cells to dephosphorylate Fas at tyrosine 291. Little is known about the regulatory function of tyrosine phosphorylation of Fas. In another exemplary embodiment, to assess the effect of TNF-α and IFN-γ sensitization on the levels of Fas tyrosine phosphorylation, MRC5 lung fibroblasts were treated with TNF-α and IFN-γ for increasing amounts of time. Because TNF-α is known to increase tyrosine phosphorylation of many proteins, such as MAP kinases and AKT, within minutes following stimulation, the kinetics of TNF-α and IFN-γ induced tyrosine phosphorylation of Fas were assessed. MRC5 lung fibroblasts were treated with TNF-α (10 ng/ml) and IFN-γ (50 U/ml) for up to 48 hours. The cells were lysed and analyzed by western blot for phosphorylated Fas, using a phospho-specific antibody for Fas phosho-Y291. TNF-α and IFN-γ increased tyrosine phosphorylation of Fas at tyrosine residue 291 beginning at 18 hours. […] The pervanadate treated MRC5 cells were lysed and analyzed the tyrosine phosphorylation of Fas by western blotting. […] We then detected phosphorylated Fas by Western blot, using a phospho-specific antibody for Fas tyrosine residue 291. […]
FIG. 5: Inhibition of tyrosine phosphatase activity sensitizes lung fibroblasts to Fas-induced apoptosis. […] Caspase-8 activation was measured by a fluorescence based assay. […]

The subject of another test is caspase-8. The experiment in a line: Caspase-8 activation (Fas-induced apoptosis) in lung fibroblasts. The class given is cell-based, human. To be noted: MRC5. The method, then: To assess the effects of these cytokines on PTPN13 expression, non-diseased normal human lung fibroblasts (NHLF), fibrotic human lung fibroblasts (FHLF) and a fetal lung fibroblast cell line, MRC5 cells, were treated with TNF-α (10/ng/ml), IFN-γ (50 U/ml) or with both cytokines for 6 hours. PTPN13 expression was measured by quantitative PCR (FIG. 2A). The primary lung fibroblasts from normal and fibrotic lung had equivalent levels of PTPN13 expression to the MRC5 lung fibroblast cell line. […] Treatment with TNF-α alone caused a 40% decrease in PTPN13 expression. Combined exposure to TNF-α and IFN-γ decreased PTPN13 mRNA expression by 80%. Protein lysates from normal, fibrotic and MRC5 fibroblasts treated for 36 hours with TNF-α (10/ng/ml), IFN-γ (50 U/ml) or with both cytokines were then analyzed for PTPN13 expression. […]
In one exemplary method, to assess whether PTPN13 expression prevents Fas-induced apoptosis, PTPN13 expression was knocked-down using siRNA. […] Apoptosis was assayed by quantifying activation of caspase-3 and caspase-8 (FIG. 3C).
In death-receptor mediated apoptosis, formation of the DISC (Death-Inducing Signaling Complex) is essential for the initiation of apoptosis. […] The cells were lysed, immunoprecipitated with anti-Fas antibody, and co-immunoprecipitated FADD and caspase-8 were detected by immunoblotting. […]

On to pervanadate, for which the “tyrosine phosphorylation of Fas” value with Fas phospho-Y291 was “increased”. Besides, in the test with caspase-8 (150 μM pervanadate 2 hour pre-treatment, then Fas-activating antibody 250 ng/ml), the “increase in caspase-8 activity over unstimulated cells” value was 6 fold. The “increase in caspase-8 activity above untreated cells” value in the test on caspase-8 (150 μM pervanadate alone) was 2 fold.
